The source of these data is paper PMC6273488, “Synthesis and Biological Evaluation of Benzochromenopyrimidinones as Cholinesterase Inhibitors and Potent Antioxidant, Non-Hepatotoxic Agents for Alzheimer’s Disease” (Molecules, 2016).

The structures appear in SMILES notation. Read-outs that look alike come from different tables or passages of the source.

Data set [1] concerns the target T1, horse serum BuChE (eqBuChE) (Equus caballus, UniProt P81908).
T1 construct: BuChE from horse serum (lyophilized powder, Sigma-Aldrich); purchased Sigma-Aldrich; host or cells: horse serum
To be noted: cited from earlier work.

For data set [2], the target named is T2, Electrophorus electricus AChE (EeAChE) (Electrophorus electricus, UniProt O42275).
T2 construct: purified AChE from Electrophorus electricus (Type V-S, Sigma-Aldrich); purchased Sigma-Aldrich Type V-S
T2 sequence (O42275 24-633): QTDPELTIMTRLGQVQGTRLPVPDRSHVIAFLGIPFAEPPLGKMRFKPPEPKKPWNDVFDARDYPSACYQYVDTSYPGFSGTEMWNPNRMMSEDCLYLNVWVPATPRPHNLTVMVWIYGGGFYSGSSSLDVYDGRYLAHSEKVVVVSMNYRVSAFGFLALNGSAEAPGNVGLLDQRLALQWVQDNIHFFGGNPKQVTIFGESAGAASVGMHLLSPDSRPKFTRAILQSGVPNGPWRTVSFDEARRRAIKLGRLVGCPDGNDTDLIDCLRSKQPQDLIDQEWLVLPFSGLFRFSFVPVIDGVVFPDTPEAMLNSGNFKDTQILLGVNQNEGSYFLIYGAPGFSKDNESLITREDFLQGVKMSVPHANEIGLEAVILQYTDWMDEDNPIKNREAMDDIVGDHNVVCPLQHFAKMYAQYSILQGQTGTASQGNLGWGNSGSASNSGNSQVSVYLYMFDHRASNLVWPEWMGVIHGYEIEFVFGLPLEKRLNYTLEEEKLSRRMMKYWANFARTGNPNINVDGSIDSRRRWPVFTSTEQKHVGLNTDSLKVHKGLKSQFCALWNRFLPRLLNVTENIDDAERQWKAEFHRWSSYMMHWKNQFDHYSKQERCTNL
The settings on record: cited from earlier work.

The conditions of data set [3]: ORAC-FL; cited from earlier work.
Data set [4] is described as follows: in vitro. The settings on record: PAMPA, pH 7.4. As to the method:
Penetration across the BBB is an essential property for compounds targeting the CNS. […] The filter membrane of the donor plate was coated with PBL (Polar Brain Lipid, Avanti, AL, USA) in dodecane (4 µL of 20 mg/mL PBL in dodecane) and the acceptor well was filled with 300 µL of PBS pH 7.4 buffer ([…]). Tested compounds were dissolved first in DMSO and that diluted with PBS pH 7.4 to reach the final concentration 100 µM in the donor well. […] 300 µL of the donor solution was added to the donor wells ([…]) and the donor filter plate was carefully put on the acceptor plate so that coated membrane was “in touch” with both donor solution and acceptor buffer. Test compound diffused from the donor well through the lipid membrane (Area = 0.28 cm^2) to the acceptor well. The concentration of the drug in both donor and the acceptor wells was assessed after 3, 4, 5 and 6 h of incubation in quadruplicate using the UV plate reader Synergy HT (Biotek, Winooski, VT, USA) at the maximum absorption wavelength of each compound.

The nature of data set [5]: in vitro. Format: cell-based. The settings on record: 24 h, MTT, read-out: In vitro toxicity (% cell viability). The procedure:
(§1) A prerequisite for any effective lead drug is to keep its cytotoxicity at the lowest possible level. In this regard, we submitted the four most promising compounds (3Ab, 3Bb, 3Cb and 3Ba) to an in vitro toxicologic evaluation (MTT assay) using human hepatocellular carcinoma cell line (HepG2) which represents a good probe to evaluate hepatotoxic effects. […].
(§2) HepG2 cells were purchased from American Type Culture Collection. The cells were cultured in Eagle’s Minimum Essential Medium (Ozyme, France) supplemented with 10% fetal bovine serum, 1X non-essential amino acids, 100 units/mL penicillin and […] streptomycin (Dutscher, Brumath, France). Cultures were kept under a CO2/air (5%/95%) humidified atmosphere at 37 °C. Prior to the experiment, cells were seeded in 96-well culture plates at a density of 0.1 × 10^6 cells per well. After 24 h of incubation, the culture medium was refreshed and 100 µL of the test compounds or DMSO (0.1%) were added. […] For the MTT assay, after 24 h of treatment, cells were incubated with 50 µL MTT (0.5 mg/mL, Sigma Aldrich, city, France) at 37 °C for 2 h. Plates were centrifuged, MTT was removed and 100 µL DMSO was distributed per well. The absorbance at 570 nm was measured using microplate reader (brand). Cell viability was expressed as percentage of cell viability compared to controls (DMSO, 0.1%).

Another data set has as its system HepG2 cells. Nature of the data set: in vitro. To be noted: HepG2, MTT, concentrations up to 1000 μM. Format: cell-based. As to the method:
as §1, §2

[6] abbreviates: related alkaloid and synthetic compounds.

T1 sequence (P81908 whole entry): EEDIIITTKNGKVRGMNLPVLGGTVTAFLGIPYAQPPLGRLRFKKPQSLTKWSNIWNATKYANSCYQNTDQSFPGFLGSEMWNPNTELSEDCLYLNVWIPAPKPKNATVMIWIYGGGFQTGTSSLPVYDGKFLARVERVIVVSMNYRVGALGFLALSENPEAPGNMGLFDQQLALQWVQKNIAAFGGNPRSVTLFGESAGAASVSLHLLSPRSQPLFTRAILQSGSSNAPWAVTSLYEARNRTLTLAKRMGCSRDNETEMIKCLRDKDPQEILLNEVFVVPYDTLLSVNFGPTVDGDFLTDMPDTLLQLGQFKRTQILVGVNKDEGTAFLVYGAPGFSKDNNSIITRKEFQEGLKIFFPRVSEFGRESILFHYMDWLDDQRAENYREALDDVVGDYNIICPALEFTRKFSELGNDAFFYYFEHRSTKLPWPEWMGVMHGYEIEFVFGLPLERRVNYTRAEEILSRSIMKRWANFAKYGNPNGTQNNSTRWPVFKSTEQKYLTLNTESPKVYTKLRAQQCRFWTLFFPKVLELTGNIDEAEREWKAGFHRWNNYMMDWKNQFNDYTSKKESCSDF

Take `C[n+]1c2n(c(=O)c3ccccc31)CCc1c-2[nH]c2ccccc12` [II, dehydroevodiamine chloride]: the IC50 in data set [1] is 8.4 µM; in data set [2] it was 6.3 µM.

`O=c1c2ccccc2nc2n1CCCC2` [Ib]: the figures for the IC50 in data set [1] (unit inferred) and in data set [2] (setting [6]) were above 500 µM and 38.6 µM, respectively.

For `O=c1c2ccccc2nc2n1CCCCC2` [Ic], the IC50 is above 500 µM in data set [1] (unit inferred) and 279 µM in data set [2] (setting [6]).

As for `Nc1c2c(nc3ccccc13)CCCC2` [Tacrine, tacrine, reference compound], the ORAC in data set [3] was 0.2 ± 0.1 [22] Trolox equivalents. Moreover, the Papp in the data set “in vitro [4]” was 5.3 ± 0.19 ×10⁻⁶ cm/s. Besides, the viability at 24 h, 1 µM in the data set “in vitro [5]” (HepG2, 1 µM) is 105 ± 4.6%. For the same compound, in “in vitro [5]” (HepG2, 3 µM), the viability at 24 h, 3 µM amounted to 104 ± 8.7%. Moreover, the viability at 24 h, 10 µM in “in vitro [5]” (HepG2, 10 µM) is 97 ± 6.5%. Besides, the viability at 24 h, 30 µM in “in vitro [5]” (HepG2, 30 µM) came out at 93 ± 2.7%. Also, in the data set “in vitro [5]” (HepG2, 100 µM), the viability at 24 h, 100 µM is 95.2 ± 6%. For the same compound, the viability at 24 h, 300 µM in “in vitro [5]” (HepG2, 300 µM) came to 47.6 ± 5.6%. For the same compound, the viability at 24 h, 1 mM in “in vitro [5]” (HepG2, 1 mM) worked out at 13.9 ± 0.8%. The “hepatotoxicity on HepG2 cells (in words)” value in the data set on HepG2 cells was “safe up to 100 µM but significantly decreased cell viability above 300 μM”.
